# From patent publication US9308244B2, “Combination therapy using active immunotherapy” (immatics Biotechnologies GmbH, priority 2007, dated 2016)
# Read-outs that look alike come from different tables or passages of the source.
# Columns and labels:
# [1] = HPLC quantification of TKI plasma levels in mouse models; format: in vivo; conditions: oral dosing
# Description: The proteins were precipitated with 40 μl 100% acetonitril (Acros, Geel, Belgium), centrifuged and filtered through a 0.2 μm PVDF filter. 10 μl was directly injected to the HPLC system.
# The HPLC system consisted of a Binary HPLC pump (Shimadzu LC10aVP), a Shimadzu SIL-10aVP autosampler, a Shimadzu CTO-10asVP column oven and a Shimadzu SPD10aVP detector. Data acquisition and analysis was performed using the Shimadzu Class-VP 7.3 software. Chromatographic separation was carried out on a reverse phase C18 column (Reprosil Pur ODS-3μ, 60×2 mm). To protect the analytical column a guard column has been used (Reprosil Pur ODS-5μ, 10×2 mm). Eluent A consisted of water (LCMS grade, Acros, Geel, Belgium), modified by 0.1% formic acid (Merck, Darmstadt, Germany) and eluent B was 80% acetonitril (Acros, Geel, Belgium) with 0.1% formic acid (Merck, Darmstadt, Germany).
# The following gradient was used: 5 min 25% eluent B, 15 min 62.5% eluent B, 6 min 80% eluent B and 5 min 80% eluent B. The temperature of the autosampler was kept at 4° C. The temperature of the column was maintained at 30° C. The detection wavelength was set at 400 nm, the injection volume was 10 μl. The column was equilibrated with the mobile phase at a flow rate 0.5 ml/min.
# For Sorafenib analysis, 10 μl of 50% acetonitril (Acros, Geel, Belgium) was added to 50 serum or medium in 0.5 ml PCR tubes and mixed for 10 seconds. […]
# C57BL/6 T cells = test: Mouse mixed lymphocyte reaction (CFSE-labeled C57BL/6 spleen cells vs irradiated BALB/c splenocytes); format: cell-based; conditions: sorafenib: at concentration near the steady-state plasma level of treated patients
# Description: CFSE-labeled spleen cells from C57BL/6 (H2-b) mice were co-cultured with irradiated splenocytes from BALB/c (H2-d) mice, resulting in the strong allogenic response and proliferation of the C57BL/6 T cells against H2-d MHC molecules. The proliferation of the T cells results in a diminished CFSE staining of the divided cells. Percentage of divided cells and their number of divisions can be analyzed by flow cytometry.
# Spleen cells were prepared from 1 C57BL/6 mouse and 1 BALB/c mouse (Harlan Winkelmann GmbH, Borchen, Germany). BALB/c cells were irradiated with 33 Gy. Effectors (C57BL/6) were adjusted to 20 Mio cells/ml. A 2 mM 5(6)-Carboxyfluorescindiacetate-N-succinimidylester (CFSE, Fluka, Buchs, Switzerland) solution in PBS was freshly prepared from a 10 mM DMSO stock solution. The cell suspension was mixed 1:1 with the CFSE solution. After incubation at 37° C. for 4 min, reaction was stopped by addition of fetal calf serum (Biochrom, Berlin, Germany), and free CFSE was washed out. 2×10^5 stimulator cells (BALB/c) were plated into cavities of a 96-well round-bottom plate. 1×10^5 or 2×10^5 CFSE-labeled effector cells and tyrosine kinase inhibitors at two different concentrations were added. Appropriate positive and negative controls were included. All cultures were in 200 μl T-cell medium with 0.1% (v/v) DMSO for 5 or 7 days without further medium change. Thereafter, cells were stained with fluorescently labelled anti-CD4-PerCP and anti-CD8-FITC antibodies (both BD Biosciences, Heidelberg, Germany) and analyzed by flow cytometry.
# The experiment described above was repeated with the exception that a 96-well flat-bottom plate was used for mixed lymphocyte reactions (MLRs), a syngenic control with irradiated C57BL/6 cells was included, more concentrations of inhibitors were assessed, and all groups were analyzed in triplicates.
# During cultivation, half of the medium was replaced with fresh appropriate medium supplemented with final concentrations of tyrosine kinase inhibitors every day, and proliferation was analyzed at day 7 only. Additionally cells were stained for H2-Kb to clearly identify effector cells in a further dimension.
# [2] = test system: HLA-A*02+ PBMCs (CD4+ and CD8+ effector cells); conditions: HLA-mismatched target cells, seven days, increasing TKI concentrations
# Description: Two fresh buffy coat (HLA-A*02+ and HLA-A*02−) were obtained from the Katharinenhospital Stuttgart. PBMCs were isolated by standard density gradient isolation and incubated overnight in T-cell medium (TCM) for human in vitro priming as in WP03 #4. Ca2+ and Mg2+ free PBS (Cambrex) washed HLA-A*02+ PBMCs were labeled at 1×10^7 cells/ml with 1 μM CFSE (Fluka, Buchs, Germany) at 37° C. for 4 minutes. Labeling was stopped by adding the same volume heat inactivated FCS (Invitrogen) and labeled cells were washed in TCM. Irradiation of target or feeder cells, if indicated, was performed at 33 Gy using a 1000 Elite gammacell (MDS Nordion, Ottawa, Canada). Stock solutions of sorafenib tosylate and sunitinib malate were prepared in DMSO (Merck, Darmstadt, Germany) and frozen aliquoted at −80° C. Mixed lymphocyte reactions were performed by coculturing 2×10^5 CFSE labeled effector plus 2×10^5 irradiated target cells as indicated per well of 96 well round bottom plates in 200 μl TCM in the presence of indicated concentrations of sorafenib, sunitinib or DMSO at 37° C. and 5% CO2 (day 1). On day 4, 100 μl supernatant was removed and 100 μl TCM supplemented with the original concentration of TKIs was added. […] Cells were washed, fixed in PFEA containing 1% formaldehyde (Fluka) and analyzed on a FACSCalibur (BD). […]
# A498 tumor cells = conditions: A498, 24 h; 13 μM sorafenib or 250 nM sunitinib; normal medium control = 100%
# [3] = Description: Female C57BL/6 mice (20-25 g, Harlan Winkelmann GmbH, Borchen, Germany) were used for all experiments described in this section. Animals were kept in the animal facility of the Dept. of Immunology at the University of Tuebingen. Animals were cared for by trained animal keepers and health status of animals was supervised by the veterinaries of the University of Tübingen. Feeding with drug was also performed in part by the local animal keepers after special training. All animals were supplied with water and food ad libitum. The described experiments were performed according to procedure no. IM1/06 approved by the Regierungsprasidium Tuebingen.
# A liquid, viscous vehicle composed of 30% (w/v) Cremophor EL (Sigma, Deisenhofen, Germany), 30% (w/v) PEG 400 (Sigma, Deisenhofen, Germany), 10% ethanol p.a., 10% glucose was used. Sunitinib and sorafenib were suspended in vehicle according to the planned dosages in a way that […] body weight had to be applied to all mice, according to approx. 50 μl of suspension. Feasible aliquots were prepared from suspensions and from vehicle and stored until use at −20° C. in the dark. Thawed substance was stored at 4° C. and used within the next three days. Animals were weighed before start of treatment and thereafter weekly. The deduced dosage was applied daily using a 1 ml syringe with gavage into the backward cavity of the mouth of the animal without anesthesia. Drug delivery into blood plasma was controlled as described in example 1.
# 1) Immunization under continuous treatment with tyrosine kinase inhibitors. Pretreatment phase was two weeks (see FIG. 5A). […]
# 3) The experimental design was identical to a) Beside negative and positive control groups, groups treated with 60 mg/kg body weight sorafenib, and 20 and 40 mg/kg body weight sunitinib were included (6 mice per group). For spleen cells, CD4, Tregs, CD8 cells, and B cells were assessed, for PBMCs CD4, CD8, B cells and Tregs were analyzed.
# [4] = test system: OVA-001 specific CD8+ T-cells; format: in vivo, C57BL/6 mice; conditions: continuous treatment, OVA-001 immunized
smiles,measurement,setting,value
CCN(CC)CCNC(=O)c1c(C)[nH]c(/C=C2\C(=O)Nc3ccc(F)cc32)c1C [Sunitinib],Bioavailability / plasma levels at the used doses,[1],confirmed to reach plasma levels shown by others to be effective in tumor growth inhibition
same,Drug-related toxicity for cells in mixed lymphocyte reactions (summary),C57BL/6 T cells,no drug-related toxicity was observed
same,Proliferation of CD8+ and CD4+ effector cells,[2],No effect
same,% Expression relative to control: ADFP,A498 tumor cells,87%
same,% Expression relative to control: APOL1,A498 tumor cells,62%
same,% Expression relative to control: CCND1,A498 tumor cells,93%
same,% Expression relative to control: GUCY1A3,A498 tumor cells,57%
same,% Expression relative to control: HLA-A,A498 tumor cells,93%
same,% Expression relative to control: HLA-B,A498 tumor cells,76%
same,% Expression relative to control: HLA-C,A498 tumor cells,87%
same,% Expression relative to control: MET,A498 tumor cells,41%
same,% Expression relative to control: MMP7,A498 tumor cells,31%
same,% Expression relative to control: MUC1,A498 tumor cells,54%
same,% Expression relative to control: PSMB8,A498 tumor cells,87%
same,% Expression relative to control: PSMB9,A498 tumor cells,132%
same,% Expression relative to control: TAP1,A498 tumor cells,123%
same,Deaths,"[3]; 80 mg/kg sunitinib, experiment one",2 out of 6
same,Inflamed lesions of injections sites,"[3]; mouse, in vivo",frequently observed
same,"OVA-001 specific CD8+ T-cells, mean","[4]; 20 mg/kg bw, n=12",3.47%
same,"OVA-001 specific CD8+ T-cells, mean","[4]; 40 mg/kg bw, n=6",2.73%
same,"OVA-001 specific CD8+ T-cells, mean","[4]; 80 mg/kg bw, n=2",0.51%
